Measurements from patent US10695366B2 (ZS PHARMA, INC., priority 2013, dated 2020).

Test system: beagles
Settings: dog, in vivo
Description: The following 14-day study is designed to show the effect of particle size and particle form on the urinary pH and presence of crystals in the urine. The compounds above are administered to beagles orally by mixing with wet dog food. The regimen is administered 3 times a day at 6 hour intervals over a 12 hour period in the following manner:
The dose levels were 100 or 600 mg/kg/dose.

test article-related findings (direct or indirect), microscopic: not present
Substance: microporous zirconium silicate [ZS-9]
